Test results published in patent US20200399390A1, “METHODS FOR PRODUCING LYMPHOCYTE PROGENITORS” (MURDOCH CHILDRENS RESEARCH INSTITUTE, priority 2017, published 2020).

System: B-lymphocytes
Assay: B-cell progenitor production by co-culture on OP9 stromal cells
Format: cell-based, human
Experimental: Co-Culture Systems Involving DLL4 Stromal or OP9 Stromal Cells for Production of B-Cell Progenitors
Co-culture systems generally used alpha-MEM medium supplemented with 10˜20% fetal calf serum (FCS), Penicillin Streptomycin, L-glutamine and 2-Mercaptoethanol (0.1 mM).
Stromal cells were seeded into an appropriate number of wells of a multi-well plate and allowed to grow until they reached confluency.
At around day 15, cells were transferred onto confluent layers of OP9 or OP9-DLL4 stromal cells and cultured in the following conditions:
Medium: alpha-MEM medium supplemented with 5˜10% FCS, penicillin streptomycin, L-glutamine and 2-mercaptoethanol (0.1 mM)
Cytokines: SCF (50 ng/mL) and DAPT (10 uM).
Media was changed every 4˜5 days.
Every 7˜10 days, the culture was passaged onto new wells coated with fresh layers of stromal cells.
As an alternative to using OP9 stromal cells expressing DLL4 (DLL4-0P9) for B-cell progenitor production according to Example 1, which requires addition of a NOTCH1 inhibitor such as DAPT to the culture medium to permit B-cell development, OP9 stromal cells (without DLL4) can also be used (FIG. 20). This system generates a larger number of B-cell progenitors (FIG. 20B), a small fraction of which (˜1%) are IgM^+ (FIG. 20B). This frequency of IgM^+ cells is similar to that seen with cord blood CD34^+ cells cultured in similar systems.

C[C@H](NC(=O)Cc1cc(F)cc(F)c1)C(=O)N[C@H](C(=O)OC(C)(C)C)c1ccccc1 [DAPT, N—[N-(3,5-difluorophenacetyl)-L-alanyl]-S-phenylglycine t-butyl ester]
effect of presence of DAPT on development of B-lymphocytes (OP9 stromal cell co-culture, SCF (50 ng/mL) and DAPT (10 uM), from around day 15): enhances the development of B-lymphocytes | effect of addition of DAPT on B-cell progenitor generation (OP9 stromal cells (without DLL4), FIG. 20): further enhanced
